The CheMixHub viscosity set

Assay: xn = mol fraction of the nth substance listed

CC(C)CC1CCCCC1 + CCCCCCCCCCCC
viscosity [mPa·s], 102 kPa
Details | x1 = 0.1 | x1 = 0.2011 | x1 = 0.3007 | x1 = 0.4005 | x1 = 0.4977 | x1 = 0.5997 | x1 = 0.6989 | x1 = 0.7996
293.15 K | 1.46 | 1.42 | 1.39 | 1.35 | 1.32 | 1.29 | 1.25 | 1.22
303.15 K | 1.23 | 1.2 | 1.17 | 1.14 | 1.12 | 1.09 | 1.07 | 1.04
313.15 K | 1.05 | 1.02 | 1 | 0.982 | 0.965 | 0.942 | 0.922 | 0.903
323.15 K | 0.902 | 0.889 | 0.874 | 0.856 | 0.842 | 0.824 | 0.809 | 0.793

CC1CCCCC1 + CCCCCCCCCCCC
viscosity [mPa·s], 101 kPa
Details | x1 = 0.1004 | x1 = 0.2017 | x1 = 0.2968 | x1 = 0.406 | x1 = 0.5059 | x1 = 0.6011 | x1 = 0.6993 | x1 = 0.7989 | x1 = 0.898
298.15 K | 1.303 | – | – | 1.084 | 1.014 | 0.948 | 0.88 | 0.811 | 0.744
303.15 K | 1.186 | 1.124 | 1.067 | 1.004 | 0.94 | – | 0.821 | 0.756 | 0.694
308.15 K | 1.096 | 1.037 | 0.981 | 0.919 | 0.862 | 0.809 | 0.755 | 0.701 | 0.647

CCCCCCCCCl + CCCCCCCCCCCC
298 K, 101.3 kPa
Details | viscosity [mPa·s]
x2 = 0.1064 | 1.143
x2 = 0.2068 | 1.151
x2 = 0.308 | 1.177
x2 = 0.4061 | 1.185
x2 = 0.5066 | 1.218
x2 = 0.6038 | 1.232
x2 = 0.6927 | 1.262
x2 = 0.7984 | 1.288
x2 = 0.8945 | 1.317

CCCCCl + CCCCCCCCCCCC
298 K, 101.3 kPa
Details | viscosity [mPa·s]
x2 = 0.1032 | 0.5072
x2 = 0.202 | 0.5794
x2 = 0.2999 | 0.6598
x2 = 0.3986 | 0.7447
x2 = 0.4981 | 0.8232
x2 = 0.6017 | 0.9282
x2 = 0.7015 | 1.034
x2 = 0.7981 | 1.13
x2 = 0.8948 | 1.22

CCOC(=O)c1ccccc1 + CCCCCCCCCCCC
101 kPa
Details | viscosity [mPa·s]
298.15 K, x2 = 0.031 | 1.896
298.15 K, x2 = 0.062 | 1.835
298.15 K, x2 = 0.0893 | 1.785
298.15 K, x2 = 0.1261 | 1.726
298.15 K, x2 = 0.168 | 1.663
298.15 K, x2 = 0.2378 | 1.58
298.15 K, x2 = 0.2782 | 1.532
298.15 K, x2 = 0.3577 | 1.462
298.15 K, x2 = 0.4064 | 1.427
298.15 K, x2 = 0.4557 | 1.396
298.15 K, x2 = 0.5044 | 1.371
298.15 K, x2 = 0.5519 | 1.351
298.15 K, x2 = 0.6714 | 1.331
298.15 K, x2 = 0.7194 | 1.324
298.15 K, x2 = 0.7886 | 1.32
298.15 K, x2 = 0.8626 | 1.325
298.15 K, x2 = 0.9296 | 1.335
308.15 K, x2 = 0.0462 | 1.569
308.15 K, x2 = 0.0741 | 1.532
308.15 K, x2 = 0.1171 | 1.477
308.15 K, x2 = 0.1439 | 1.445
308.15 K, x2 = 0.1806 | 1.405
308.15 K, x2 = 0.2481 | 1.342
308.15 K, x2 = 0.2629 | 1.329
308.15 K, x2 = 0.295 | 1.303
308.15 K, x2 = 0.3388 | 1.272
308.15 K, x2 = 0.3769 | 1.249
308.15 K, x2 = 0.4331 | 1.218
308.15 K, x2 = 0.4765 | 1.198
308.15 K, x2 = 0.527 | 1.178
308.15 K, x2 = 0.5759 | 1.163
308.15 K, x2 = 0.6373 | 1.149
308.15 K, x2 = 0.7278 | 1.138
308.15 K, x2 = 0.7527 | 1.136
308.15 K, x2 = 0.8209 | 1.134
308.15 K, x2 = 0.9374 | 1.142
318.15 K, x2 = 0.0278 | 1.314
318.15 K, x2 = 0.0571 | 1.276
318.15 K, x2 = 0.0872 | 1.241
318.15 K, x2 = 0.1222 | 1.203
318.15 K, x2 = 0.155 | 1.173
318.15 K, x2 = 0.1942 | 1.14
318.15 K, x2 = 0.2296 | 1.113
318.15 K, x2 = 0.2726 | 1.084
318.15 K, x2 = 0.3115 | 1.061
318.15 K, x2 = 0.3575 | 1.037
318.15 K, x2 = 0.3995 | 1.019
318.15 K, x2 = 0.4522 | 0.999
318.15 K, x2 = 0.4995 | 0.984
318.15 K, x2 = 0.5564 | 0.97
318.15 K, x2 = 0.6085 | 0.961
318.15 K, x2 = 0.6725 | 0.954
318.15 K, x2 = 0.7324 | 0.95
318.15 K, x2 = 0.7851 | 0.948
318.15 K, x2 = 0.868 | 0.953

CCOC(=O)c1ccccc1 + CCCCCCCCCCCCCC
101 kPa
Details | viscosity [mPa·s]
298.15 K, x2 = 0.0376 | 1.927
298.15 K, x2 = 0.0653 | 1.899
298.15 K, x2 = 0.097 | 1.866
298.15 K, x2 = 0.1285 | 1.84
298.15 K, x2 = 0.1619 | 1.815
298.15 K, x2 = 0.1952 | 1.799
298.15 K, x2 = 0.229 | 1.781
298.15 K, x2 = 0.269 | 1.767
298.15 K, x2 = 0.3084 | 1.754
298.15 K, x2 = 0.3521 | 1.745
298.15 K, x2 = 0.3928 | 1.742
298.15 K, x2 = 0.4877 | 1.744
298.15 K, x2 = 0.5485 | 1.755
298.15 K, x2 = 0.5924 | 1.767
298.15 K, x2 = 0.6572 | 1.791
298.15 K, x2 = 0.7238 | 1.827
298.15 K, x2 = 0.7795 | 1.867
298.15 K, x2 = 0.8695 | 1.935
308.15 K, x2 = 0.0358 | 1.606
308.15 K, x2 = 0.0727 | 1.582
308.15 K, x2 = 0.1009 | 1.566
308.15 K, x2 = 0.1305 | 1.552
308.15 K, x2 = 0.1614 | 1.537
308.15 K, x2 = 0.198 | 1.524
308.15 K, x2 = 0.2316 | 1.515
308.15 K, x2 = 0.2666 | 1.506
308.15 K, x2 = 0.3094 | 1.498
308.15 K, x2 = 0.3501 | 1.493
308.15 K, x2 = 0.3905 | 1.49
308.15 K, x2 = 0.4393 | 1.489
308.15 K, x2 = 0.4794 | 1.491
308.15 K, x2 = 0.5373 | 1.498
308.15 K, x2 = 0.5983 | 1.51
308.15 K, x2 = 0.6573 | 1.527
308.15 K, x2 = 0.7193 | 1.552
308.15 K, x2 = 0.8442 | 1.615
308.15 K, x2 = 0.9249 | 1.663
318.15 K, x2 = 0.0231 | 1.332
318.15 K, x2 = 0.0543 | 1.31
318.15 K, x2 = 0.0817 | 1.291
318.15 K, x2 = 0.1144 | 1.274
318.15 K, x2 = 0.1449 | 1.259
318.15 K, x2 = 0.1819 | 1.245
318.15 K, x2 = 0.2156 | 1.233
318.15 K, x2 = 0.2563 | 1.225
318.15 K, x2 = 0.2936 | 1.219
318.15 K, x2 = 0.3396 | 1.213
318.15 K, x2 = 0.3807 | 1.212
318.15 K, x2 = 0.4322 | 1.213
318.15 K, x2 = 0.4784 | 1.216
318.15 K, x2 = 0.5446 | 1.226
318.15 K, x2 = 0.5958 | 1.237
318.15 K, x2 = 0.6468 | 1.251
318.15 K, x2 = 0.6941 | 1.267
318.15 K, x2 = 0.7925 | 1.306
318.15 K, x2 = 0.8579 | 1.336
